Reference: the supplement of paper PMC10307832

Tests used:
Test in all cases: relative viability (nuclei count vs DMSO), 5 days (fraction); higher = more cells survive
IPA-3 + Pemetrexed = compound: C1=CC=C2C(=C1)C=CC(=C2SSC3=C(C=CC4=CC=CC=C43)O)O [IPA-3] + Nc1nc2[nH]cc(CCc3ccc(C(=O)N[C@@H](CCC(=O)O)C(=O)O)cc3)c2c(=O)[nH]1 [Pemetrexed] (partner 0.2 µM)
Method in brief: (§1)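 Relative viability was taken as the ratio of nuclei in treated wells to nuclei in vehicle wells. Lung cancer cell lines in 1536-well plates received compounds by pin tool one day after seeding, either one drug alone or a fixed anchor-drug dose plus five library-drug doses (not always all listed) in √10 steps. Nuclei were counted on 4× images after 5 days of treatment, and values are medians of duplicate plates.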

IPA-3 + Vorinostat = compound: C1=CC=C2C(=C1)C=CC(=C2SSC3=C(C=CC4=CC=CC=C43)O)O [IPA-3] + O=C(CCCCCCC(=O)Nc1ccccc1)NO [Vorinostat] (partner 1 µM)
Method in brief: as §1

RAF265 + Olaparib = compound: Cn1c(Nc2ccc(C(F)(F)F)cc2)nc2cc(Oc3ccnc(-c4ncc(C(F)(F)F)[nH]4)c3)ccc21 [RAF265] + O=C(c1cc(Cc2n[nH]c(=O)c3ccccc23)ccc1F)N1CCN(C(=O)C2CC2)CC1 [Olaparib] (partner 8 µM)
Method in brief: as §1

RAF265 + Tozasertib = compound: Cn1c(Nc2ccc(C(F)(F)F)cc2)nc2cc(Oc3ccnc(-c4ncc(C(F)(F)F)[nH]4)c3)ccc21 [RAF265] + Cc1cc(Nc2cc(N3CCN(C)CC3)nc(Sc3ccc(NC(=O)C4CC4)cc3)n2)n[nH]1 [Tozasertib] (partner 0.1 µM)
Method in brief: as §1

Cell Line	relative viability (IPA-3 + Pemetrexed; first compound 0.2 µM)	relative viability (IPA-3 + Pemetrexed; first compound 0.6325 µM)	relative viability (IPA-3 + Pemetrexed; first compound 2 µM)	relative viability (IPA-3 + Pemetrexed; first compound 6.325 µM)	relative viability (IPA-3 + Pemetrexed; first compound 20 µM)	relative viability (IPA-3 + Vorinostat; first compound 0.2 µM)	relative viability (IPA-3 + Vorinostat; first compound 0.6325 µM)	relative viability (IPA-3 + Vorinostat; first compound 2 µM)	relative viability (IPA-3 + Vorinostat; first compound 6.325 µM)	relative viability (IPA-3 + Vorinostat; first compound 20 µM)	relative viability (RAF265 + Olaparib; first compound 0.01 µM)	relative viability (RAF265 + Olaparib; first compound 0.03162 µM)	relative viability (RAF265 + Olaparib; first compound 0.1 µM)	relative viability (RAF265 + Olaparib; first compound 0.3162 µM)	relative viability (RAF265 + Olaparib; first compound 1 µM)	relative viability (RAF265 + Tozasertib; first compound 0.01 µM)	relative viability (RAF265 + Tozasertib; first compound 0.03162 µM)	relative viability (RAF265 + Tozasertib; first compound 0.1 µM)	relative viability (RAF265 + Tozasertib; first compound 0.3162 µM)	relative viability (RAF265 + Tozasertib; first compound 1 µM)
SK-LU-1	1.16	0.938	1.01	0.926	1.14	0.902	0.779	0.643	0.75	0.852	0.511	0.386	0.419	0.283	0.265	0.333	0.273	0.296	0.278	0.204
LOU-NH91	0.382	0.377	0.465	0.387	0.411	0.946	0.804	0.902	0.87	1.08	1.02	0.831	0.9	0.675	0.737	0.705	0.618	0.78	0.457	0.467
LXF-289	0.949	0.786	0.963	0.996	0.925	0.825	0.862	0.692	0.827	0.898	1.08	1.06	0.998	0.748	0.551	0.217	0.172	0.174	0.205	0.108
NCI-H1299	–	–	–	–	–	–	–	–	–	–	0.984	0.906	0.949	0.625	0.664	–	–	–	–	–
HARA	0.298	0.227	0.249	0.229	0.24	0.48	0.509	0.421	0.653	0.447	0.859	0.871	0.812	0.65	0.438	0.12	0.0972	0.13	0.0934	0.0806
LU99A	0.188	0.189	0.143	0.187	0.175	0.642	0.4	0.459	0.461	0.379	0.268	0.283	0.226	0.185	0.152	0.318	0.285	0.28	0.291	0.195
201T	0.311	0.349	0.373	0.295	0.338	1.04	0.931	1.01	0.926	1.13	0.839	0.804	0.887	0.824	0.828	0.955	0.862	1.03	0.939	0.696
HCC-827	0.264	0.261	0.241	0.254	0.254	0.87	0.871	0.739	0.864	0.771	0.727	0.7	0.794	–	0.512	0.412	0.421	0.445	–	0.361
NCI-H1666	0.842	0.853	0.874	0.796	0.83	1.07	1.06	1.07	1.04	1.03	0.806	0.746	0.707	0.786	0.703	0.635	0.664	0.689	0.618	0.488
NCI-H1915	0.559	0.463	0.497	0.461	0.633	0.581	0.497	0.505	0.492	0.533	0.256	0.248	0.235	0.224	0.136	0.437	0.428	0.457	0.278	0.163
NCI-H2009	1.16	0.974	1.03	0.958	1.09	0.858	0.685	0.89	0.723	0.642	0.785	0.594	0.603	0.671	0.579	0.758	0.721	0.745	0.809	0.476
ChaGo-K-1	0.257	0.264	0.272	0.281	0.263	0.968	0.699	0.757	0.864	0.875	0.411	0.429	0.464	0.422	0.371	0.215	0.246	0.217	0.243	0.235
COR-L 105	1.22	0.904	1.07	1.18	1.14	1.08	0.543	0.907	0.995	0.79	0.727	0.618	0.703	0.772	0.485	0.435	0.423	0.341	0.451	0.317
NCI-H2170	0.254	0.28	0.243	0.28	0.273	0.87	0.997	1.04	0.768	0.901	0.58	0.485	0.596	0.438	0.405	0.734	0.651	0.752	0.587	0.538
A549	–	–	–	–	–	–	–	–	–	–	0.41	0.367	0.404	0.0957	0.0721	–	–	–	–	–
SW 1573	0.964	0.87	0.921	0.906	0.162	1.05	0.655	0.865	0.958	0.536	0.474	0.388	0.304	0.28	0.248	0.168	0.24	0.171	0.183	0.139
NCI-H1975	0.318	0.288	0.305	0.347	0.274	0.791	0.672	0.712	0.83	0.831	0.707	0.552	0.522	0.308	0.305	0.676	0.621	0.7	0.379	0.126
Calu-6	–	–	–	–	–	–	–	–	–	–	0.6	0.591	0.528	0.442	0.255	–	–	–	–	–
SW 900	0.544	0.456	0.472	0.441	0.527	0.609	0.531	0.641	0.654	0.481	0.89	0.725	0.79	0.716	0.27	0.648	0.583	0.594	0.526	0.295

Cell Line	relative viability (IPA-3 + Pemetrexed; first compound 0.2 µM)	relative viability (IPA-3 + Pemetrexed; first compound 0.6325 µM)	relative viability (IPA-3 + Pemetrexed; first compound 2 µM)	relative viability (IPA-3 + Pemetrexed; first compound 6.325 µM)	relative viability (IPA-3 + Pemetrexed; first compound 20 µM)	relative viability (IPA-3 + Vorinostat; first compound 0.2 µM)	relative viability (IPA-3 + Vorinostat; first compound 0.6325 µM)	relative viability (IPA-3 + Vorinostat; first compound 2 µM)	relative viability (IPA-3 + Vorinostat; first compound 6.325 µM)	relative viability (IPA-3 + Vorinostat; first compound 20 µM)	relative viability (RAF265 + Olaparib; first compound 0.01 µM)	relative viability (RAF265 + Olaparib; first compound 0.03162 µM)	relative viability (RAF265 + Olaparib; first compound 0.1 µM)	relative viability (RAF265 + Olaparib; first compound 0.3162 µM)	relative viability (RAF265 + Olaparib; first compound 1 µM)	relative viability (RAF265 + Tozasertib; first compound 0.01 µM)	relative viability (RAF265 + Tozasertib; first compound 0.03162 µM)	relative viability (RAF265 + Tozasertib; first compound 0.1 µM)	relative viability (RAF265 + Tozasertib; first compound 0.3162 µM)	relative viability (RAF265 + Tozasertib; first compound 1 µM)
NCI-H1623	–	–	–	–	–	–	–	–	–	–	–	–	–	–	–	0.507	0.474	0.475	–	0.392
NCI-H3122	0.189	0.197	0.192	0.207	0.211	1.06	1.2	1.03	1.46	1.14	0.609	0.63	0.631	0.622	0.611	0.362	0.492	0.424	–	0.283
NCI-H2347	0.418	0.416	0.76	0.452	0.433	0.768	0.601	0.634	0.506	0.638	0.644	0.606	0.57	0.523	0.384	0.653	0.507	0.809	0.436	0.325
HCC-44	0.607	0.575	0.588	0.617	0.616	1.03	1.03	1.04	1.07	0.986	0.977	0.985	0.998	0.984	1.01	0.892	0.779	1.25	1.07	0.821
HCC-78	0.918	0.894	0.999	0.869	0.953	0.464	0.437	0.476	0.442	0.489	1	0.876	1.06	0.864	0.724	0.349	0.472	0.417	0.463	0.396
COR-L23	0.212	0.194	0.193	0.198	0.204	0.561	0.471	0.416	0.232	0.307	0.395	0.329	0.305	0.307	0.184	0.212	0.176	0.208	0.201	0.161
NCI-H1993	0.652	0.602	0.57	0.531	0.516	1.15	0.639	0.758	0.725	0.918	1.21	1.41	1.19	1.07	0.886	0.606	0.57	0.571	0.593	0.594
NCI-H2405	1.19	1.07	1.11	0.998	0.962	1.17	1.11	1.11	0.922	1.04	0.96	0.88	0.834	0.838	0.514	0.798	0.736	0.876	0.853	0.458
NCI-H2126	0.726	0.706	0.721	0.678	0.712	0.822	0.784	0.746	0.753	0.892	0.942	0.907	0.901	0.818	0.724	0.905	0.844	0.826	0.881	0.607
NCI-H1944	0.687	0.549	0.551	0.721	0.577	0.674	0.492	0.479	0.574	0.527	0.43	0.44	0.385	0.361	0.26	0.265	0.248	0.265	0.234	0.185
NCI-H1648	0.69	0.855	0.558	0.584	0.777	0.876	0.484	0.589	0.34	0.399	1.43	0.891	0.537	0.78	0.279	0.425	0.431	0.598	0.466	0.417
NCI-H358	0.168	0.172	0.159	0.162	0.158	0.785	0.618	0.783	0.619	0.803	0.749	0.489	0.403	0.286	0.16	0.11	0.0915	0.0883	0.0935	0.0863
NCI-H727	–	–	–	–	–	1.25	1.01	1.27	1.07	1.2	0.701	0.685	0.708	0.593	0.547	0.703	0.642	0.641	0.536	0.411
ABC-1	–	–	–	–	–	1.2	1.31	1.11	1.12	1.13	0.919	0.649	0.952	1.07	0.791	0.17	0.202	0.178	0.158	0.24
NCI-H1792	1.33	0.486	–	0.587	0.737	–	–	–	–	–	0.474	0.291	0.279	0.262	0.0641	–	–	–	–	–
NCI-H1563	0.807	0.797	0.792	1	0.864	–	–	–	–	–	–	–	–	–	–	–	–	–	–	–
EBC-1	–	–	–	–	–	–	–	–	–	–	0.721	0.64	0.639	0.586	0.432	–	–	–	–	–
IA-LM	–	–	–	–	–	1.06	0.922	0.925	0.891	1.15	0.745	0.81	0.832	0.681	0.61	–	–	–	–	–
NCI-H1703	–	–	–	–	–	–	–	–	–	–	0.358	0.416	0.342	0.33	0.273	–	–	–	–	–
